Assay results taken from ChEMBL document CHEMBL1144437, “Identification of nonpeptidic small-molecule inhibitors of interleukin-2” (Bioorg Med Chem Lett, 2005).

Assay: Inhibitory concentration against interleukin-2 binding
Set-up: species or system Homo sapiens

Row | SMILES | IC50 [µM]
1 | CC(C)[C@H](CCNC(=O)N1CCC(c2cc(-c3cccc(Cl)c3Cl)nn2C)CC1)N=C(N)N | 55
2 | CC(C)[C@@H](CCNS(=O)(=O)N1CCC(c2cc(-c3cccc(Cl)c3Cl)nn2C)CC1)N=C(N)N | > 100
3 | Cn1nc(-c2cccc(Cl)c2Cl)cc1C1CCN(S(=O)(=O)NCCN=C(N)N)CC1 | > 100
4 | Cn1nc(-c2cccc(Cl)c2Cl)cc1C1CCN(S(=O)(=O)NCCCN=C(N)N)CC1 | 23
5 | CC(C)N(CCCNS(=O)(=O)N1CCC(c2cc(-c3cccc(Cl)c3Cl)nn2C)CC1)C(=N)N | 48
6 | CC(C)C[C@H](CCNC(=O)N1CCC(c2cc(-c3cccc(Cl)c3Cl)nn2C)CC1)N=C(N)N | 23
7 | Cn1nc(-c2cccc(Cl)c2Cl)cc1C1CCN(C(=O)NCC[C@H](N=C(N)N)C(=O)O)CC1 | > 100
8 | CCCN(CCCNC(=O)N1CCC(c2cc(-c3cccc(Cl)c3Cl)nn2C)CC1)C(=N)N | > 100
9 | CN(CCCNS(=O)(=O)N1CCC(c2cc(-c3cccc(Cl)c3Cl)nn2C)CC1)C(=N)N | 14
10 | COC(=O)[C@H](Cc1ccc(C#Cc2ccccc2)cc1)NC(=O)C[C@H]1CCCN(C(=N)N)C1 | 3
11 | CC(C)[C@H](CCNS(=O)(=O)N1CCC(c2cc(-c3cccc(Cl)c3Cl)nn2C)CC1)N=C(N)N | 76
12 | Cn1nc(-c2cccc(Cl)c2Cl)cc1C1CCN(C(=O)NCCCN=C(N)N)CC1 | 29
13 | Cn1nc(-c2cccc(Cl)c2Cl)cc1C1CCN(C(=O)NCCCCN=C(N)N)CC1 | > 100
14 | CC(C)C[C@@H](NC(=N)N)C(=O)NCC(=O)N1CCC(c2cc(-c3ccc(OCc4ccc(C(=O)O)o4)c(Cl)c3Cl)nn2C)CC1 | 0.06
15 | CC(C)[C@@H](CCNC(=O)N1CCC(c2cc(-c3cccc(Cl)c3Cl)nn2C)CC1)N=C(N)N | > 100
16 | CNC(=O)[C@H](CCNC(=O)N1CCC(c2cc(-c3cccc(Cl)c3Cl)nn2C)CC1)N=C(N)N | > 100
17 | N=C(N)N[C@@H](C(=O)NCC(=O)N1CCC(c2cc(-c3cccc(Cl)c3Cl)n[nH]2)CC1)C1CCCCC1 | 6
18 | CC(C)C[C@H](CCNS(=O)(=O)N1CCC(c2cc(-c3cccc(Cl)c3Cl)nn2C)CC1)N=C(N)N | 30
19 | C[C@H](CCNC(=O)N1CCC(c2cc(-c3cccc(Cl)c3Cl)nn2C)CC1)N=C(N)N | 57
20 | CCN(CC)C(=O)[C@H](CCNC(=O)N1CCC(c2cc(-c3cccc(Cl)c3Cl)nn2C)CC1)N=C(N)N | 11
21 | COC(=O)[C@H](CCNC(=O)N1CCC(c2cc(-c3cccc(Cl)c3Cl)nn2C)CC1)N=C(N)N | > 100
22 | Cn1nc(-c2cccc(Cl)c2Cl)cc1C1CCN(S(=O)(=O)NCCCCN=C(N)N)CC1 | > 100
23 | CCCN(CCCNS(=O)(=O)N1CCC(c2cc(-c3cccc(Cl)c3Cl)nn2C)CC1)C(=N)N | 32

Other lines, results leading:

Row | IC50 [µM] | SMILES
24 | 90 | C[C@H](CCNS(=O)(=O)N1CCC(c2cc(-c3cccc(Cl)c3Cl)nn2C)CC1)N=C(N)N
25 | 16 | CN(CCCNC(=O)N1CCC(c2cc(-c3cccc(Cl)c3Cl)nn2C)CC1)C(=N)N
26 | 60 | CC(=O)N1CCN(C(=O)[C@H](CCNC(=O)N2CCC(c3cc(-c4cccc(Cl)c4Cl)nn3C)CC2)N=C(N)N)CC1
27 | 7 | CN(C)C(=O)[C@H](CCNC(=O)N1CCC(c2cc(-c3cccc(Cl)c3Cl)nn2C)CC1)N=C(N)N
28 | > 100 | CC(C)N(CCCNC(=O)N1CCC(c2cc(-c3cccc(Cl)c3Cl)nn2C)CC1)C(=N)N
29 | > 100 | Cn1nc(-c2cccc(Cl)c2Cl)cc1C1CCN(C(=O)NCC[C@H](N=C(N)N)C(=O)N2CCC3CCCCC3C2)CC1 (stereo partly drawn)
30 | 20 | Cn1nc(-c2cccc(Cl)c2Cl)cc1C1CCN(C(=O)NCC[C@H](N=C(N)N)C(=O)N2CCCC2)CC1
31 | 60 | CCN(CC1CC1)C(=O)[C@H](CCNC(=O)N1CCC(c2cc(-c3cccc(Cl)c3Cl)nn2C)CC1)N=C(N)N
32 | > 100 | Cn1nc(-c2cccc(Cl)c2Cl)cc1C1CCN(C(=O)NCCN=C(N)N)CC1
33 | 0.6 | CN(CCCNS(=O)(=O)N1CCC(c2cc(-c3ccc(OCc4ccc(C(=O)O)o4)c(Cl)c3Cl)nn2C)CC1)C(=N)N
